For this test, the system named is 5X-Gal4-tata-Luc or TK-Gal4-Luc. In words: Autonomous repressor activity, Gal4 DBD fusions on Gal4-responsive reporter genes in HepG2 cells. Format: cell-based. The settings on record: fused to Gal4 DBD, both reporter genes. A general note: A reporter such as luciferase makes a cellular process visible.

We go through one substance from US7238793B2 (Duke University, priority 2001, dated 2007).

Regarding “NCoR: known transcriptional repressor, nuclear receptor co-repressor”, the “effect on transcriptional activity of Gal4-responsive reporter genes” value is reported as “inhibit”.
